{"source": "ChEMBL document CHEMBL1130812", "about": "“The design and synthesis of inhibitors of the cysteinyl protease, Der p I” (Bioorg Med Chem Lett, 1998)", "key": {"[1]": {"test_system": "Dermatophagoides pteronyssinus", "assay": "Inhibitory activity against Cysteinyl protease was evaluated by method A in experiment 1"}, "[2]": {"test_system": "Dermatophagoides pteronyssinus", "assay": "Inhibitory activity against Cysteinyl protease was evaluated by method A in experiment 2"}, "[3]": {"test_system": "Dermatophagoides pteronyssinus", "assay": "Inhibitory activity against Cysteinyl protease was evaluated by method B"}, "[4]": {"assay": "Inhibitory activity against Cysteinyl protease was evaluated", "design": "species or system Dermatophagoides pteronyssinus"}, "[5]": {"test_system": "Dermatophagoides pteronyssinus", "assay": "Inhibitory activity against Cysteinyl protease was evaluated by method A"}, "[6]": {"assay": "Reversible Inhibitory activity on Cysteinyl protease was evaluated", "design": "species or system Dermatophagoides pteronyssinus"}}, "note": "pKi: −log10 of the molar value. Where a SMILES comes first, the peptide text is derived from it. The star is where a group is joined. Boc = CC(C)(C)OC(=O)*"}
{"smiles": "CCCC[C@H](NC(=O)[C@H](C)NC(=O)[C@@H](NC(=O)c1ccccc1)C(C)C)C(=O)COC(=O)c1c(C(F)(F)F)cccc1C(F)(F)F", "values": [{"measurement": "k obs / 1", "setting": "[1]", "value": "1e+06", "unit": "M⁻¹ s⁻¹"}, {"measurement": "k obs / 1", "setting": "[2]", "value": "2.2e+06", "unit": "M⁻¹ s⁻¹"}, {"measurement": "k obs / 1", "setting": "[3]", "value": "1.3e+07", "unit": "M⁻¹ s⁻¹"}]}
{"smiles": "CC(C)C[C@@H](/C=C/S(=O)(=O)c1ccccc1)NC(=O)[C@H](C)NC(=O)[C@@H](NC(=O)OC(C)(C)C)C(C)C", "values": [{"measurement": "k obs / 1", "setting": "[1]", "value": 6400, "unit": "M⁻¹ s⁻¹"}, {"measurement": "k obs / 1", "setting": "[2]", "value": 25000, "unit": "M⁻¹ s⁻¹"}]}
{"smiles": "CCCC[C@H](NC(=O)[C@H](C)NC(=O)[C@@H](NC(=O)c1ccccc1)C(C)C)C(=O)COC(=O)c1c(Cl)cccc1Cl", "values": [{"measurement": "k obs / 1", "setting": "[3]", "value": "6.8e+07", "unit": "M⁻¹ s⁻¹"}]}
{"smiles": "CC(C)C[C@@H](C=O)NC(=O)[C@H](C)NC(=O)[C@@H](NC(=O)OC(C)(C)C)C(C)C", "note": "(Boc-Val-Ala-Leu-aldehyde)", "values": [{"measurement": "pKi", "setting": "[4]", "value": 7.85}]}
{"smiles": "CCOC(=O)/C=C/[C@H](CC(C)C)NC(=O)[C@H](C)NC(=O)[C@@H](NC(=O)OC(C)(C)C)C(C)C", "values": [{"measurement": "k obs / 1", "setting": "[1]", "value": 1700, "unit": "M⁻¹ s⁻¹"}, {"measurement": "k obs / 1", "setting": "[2]", "value": 7900, "unit": "M⁻¹ s⁻¹"}]}
{"smiles": "CCOC(=O)/C=C/[C@H](CC(C)C)NC(=O)[C@H](C)NC(=O)[C@@H](NC(C)=O)C(C)C", "values": [{"measurement": "k obs / 1", "setting": "[5]", "value": "< 100", "unit": "M⁻¹ s⁻¹"}]}
{"smiles": "CC(C)C[C@@H](/C=C/S(C)(=O)=O)NC(=O)[C@H](C)NC(=O)[C@@H](NC(=O)OC(C)(C)C)C(C)C", "values": [{"measurement": "k obs / 1", "setting": "[1]", "value": 1100, "unit": "M⁻¹ s⁻¹"}, {"measurement": "k obs / 1", "setting": "[2]", "value": 11000, "unit": "M⁻¹ s⁻¹"}]}
{"smiles": "CCCC[C@H](NC(=O)[C@H](C)NC(=O)[C@@H](NC(=O)c1ccccc1)C(C)C)C(=O)CBr", "values": [{"measurement": "pKi", "setting": "[6]", "value": 8.80}]}
{"smiles": "CCCC[C@H](NC(=O)[C@H](C)NC(=O)[C@@H](NC(=O)c1ccccc1)C(C)C)C(=O)COC(=O)c1c(C)cccc1C", "values": [{"measurement": "k obs / 1", "setting": "[3]", "value": "1.6e+07", "unit": "M⁻¹ s⁻¹"}]}
{"smiles": "CCOC(=O)/C=C/[C@H](CC(C)C)NC(=O)[C@H](C)NC(=O)[C@@H](N)C(C)C", "values": [{"measurement": "k obs / 1", "setting": "[5]", "value": "< 100", "unit": "M⁻¹ s⁻¹"}]}
{"smiles": "CCOC(=O)/C=C/[C@H](CC(C)C)NC(=O)[C@H](C)NC(=O)[C@@H](NC(=O)c1ccccc1)C(C)C", "values": [{"measurement": "k obs / 1", "setting": "[1]", "value": 4100, "unit": "M⁻¹ s⁻¹"}, {"measurement": "k obs / 1", "setting": "[2]", "value": 16000, "unit": "M⁻¹ s⁻¹"}]}
{"smiles": "CC(C)C[C@@H](/C=C/S(=O)(=O)Cc1ccccc1)NC(=O)[C@H](C)NC(=O)[C@@H](NC(=O)OC(C)(C)C)C(C)C", "values": [{"measurement": "k obs / 1", "setting": "[1]", "value": 2300, "unit": "M⁻¹ s⁻¹"}, {"measurement": "k obs / 1", "setting": "[2]", "value": 350000, "unit": "M⁻¹ s⁻¹"}]}
{"smiles": "CCCC[C@H](NC(=O)[C@H](C)NC(=O)[C@@H](NC(=O)c1ccccc1)C(C)C)C(=O)COC(=O)c1ccccc1", "values": [{"measurement": "k obs / 1", "setting": "[1]", "value": 370000, "unit": "M⁻¹ s⁻¹"}, {"measurement": "k obs / 1", "setting": "[2]", "value": 50000, "unit": "M⁻¹ s⁻¹"}]}
